In US9849131B2 (AUTIFONY THERAPEUTICS LIMITED, priority 2009, dated 2017):

Experiments:
[1] = system: high voltage-activated potassium currents in MNTB neurons (presumed to be mediated by Kv3.1 channels); assay: Potassium currents recorded from MNTB neurons, in vitro (Example 91); assay type: cell-based, mouse; conditions: 10 microM in the continuing presence of TEA (1 mM); voltage steps to +40 mV
Procedure: Male CBA/Ca mice (aged 12-16 days) were used in these experiments (in accordance with the UK Animals Scientific Procedures Act, 1986). Brain slices containing the medial nucleus of the trapezoid body (MNTB) were prepared as described previously (Brew and Forsythe, 2005).
Chemicals and reagents were purchased from Sigma, (Poole, UK) unless otherwise noted. EXAMPLE 19 was dissolved in DMSO and diluted in ACSF to the required concentration.
Recordings from identified MNTB neurons were conducted as previously described (Brew and Forsythe, 2005). Slices was placed in a superfusion chamber on an inverted microscope stage and continuously perfused with gassed (95% O2-5% CO2) ACSF at a rate of 1 ml min^−1 at room temperature. Whole-cell recordings were made from visually identified MNTB neurons using an […] amplifier (Molecular Devices, Union City, Calif., USA). Patch solution comprised (in mM) potassium gluconate (97.5), KCl (32.5), Hepes (40), EGTA (5), MgCl2 (1), Na2 phosphocreatin (5), pH 7.2 with KOH. Pipettes had resistances of 3-5 MΩ and series resistances were 6-10 MΩ (compensated by 70%, 10 μs lag). Access resistance was frequently monitored and the recording discarded if increases were more than 2 MΩ. […]

common marmosets = assay: Behaviour of the common marmoset on threatening human approach (Example 94); assay type: in vivo; conditions: for Number of Jumps / Number of postures: 2 minute test, mean ± sem
From the text: Central anxiolytic effects of a test compound can be assessed from the ability of the compound to reduce the characteristic defensive postures of marmosets in response to a threatening approach by a human. The test can also be used to assess the sedative or hypnotic effects of a test compound from its ability to reduce the number of jumps made by the animals. The study was based on the method described in Costall, B. et al (1988) Br. J. Pharmac. 95 p 475P. Laboratory-bred (GSK SpA, Italy) male and female common marmosets over 2 years of age, weighing 300-500 g were used in the study. The animals were caged in couples in a housing room maintained at 25±1° C., 60% humidity, and a 12 hour light/dark cycle (lights on at 0600, with 30 minutes simulated dawn and twilight). Both animals in each pair were involved in the test, which was carried out with the animals in their home cage.
The postures recorded in the test were those described by Costall et al supra; • Genital presenting (“Tail Posture”): the animal's back is turned to the observer with elevation of the tail to expose the genital region; • Scent-marking: the animal scent-marks the cage surfaces using circum-anal and circum-genital scent glands; • Slit-stare: the animal stares at the observer with flattened ear tufts and eyes reduced to “slits” • Arch-piloerection: the animal moves around the cage with arched back and full-body piloerection, failing to make eye contact with the observer
The number of jumps from the back of the cage to the cage front provided an index of locomotor activity, which could be used to assess the potential for a hypnotic effect, sedation, or locomotor stimulation produced by the test compound.

[2] = 0.3 mg/kg p.o. 2 hours before test
[3] = 1 mg/kg p.o. 2 hours before test
[4] = 3 mg/kg p.o. 2 hours before test

With `CC[C@H]1NC(=O)N(c2ccc(Oc3ccc(C)c(OC)c3)nc2)C1=O` [Example 19, (5R)-5-ethyl-3-(6-{[4-methyl-3-(methyloxy)phenyl]oxy}-3-pyridinyl)-2,4-imidazolidinedione] the “reversal of TEA-induced reduction of high voltage-activated potassium current amplitude” value [1] was “reversed”, the “Number of Jumps” value (common marmosets; [2]) was 21.3 ± 2.7 and the Number of postures (common marmosets; [2]) was 12.2 ± 1.03. The “effect on the number of jumps” value (common marmosets; 1 mg/kg p.o.) was “significantly reduced”, the “Number of Jumps” value (common marmosets; [3]) was 15.3 ± 2.5 and the Number of postures (common marmosets; [3]) was 10.0 ± 1.2. The “effect on the number of jumps” value (common marmosets; 3 mg/kg p.o.) was “significantly reduced”, the “Number of Jumps” value (common marmosets; [4]) was 11.5 ± 1.9 and the Number of postures (common marmosets; [4]) was 9.7 ± 1.1. The “effects on postures” value (common marmosets; any dose (0.3, 1, 3 mg/kg p.o.)) was “without any effects”.
